GI50 data for two compounds are collected here from ChEMBL document CHEMBL1201862, “PubChem BioAssay data set” (2004).

Test systems include NCI-H522; SNB-19; Hs-578T; T47D; NCI/ADR-RES; COLO 205; TK-10; SN12C; SNB-75; A549; NCI-H460; HCT-116; OVCAR-8; MCF7; IGROV-1; EKVX; PC-3; SK-OV-3; HCT-15; SF-295.
What all share (experiment): DTP human tumour cell line panel, 48 h

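Growth conditions: 96-well plates. Treatment: test compound, 48 hours, 5 concentrations. Analysis: linear interpolation between bracketing concentrations; unreached endpoints set to highest concentration. GI50 is the concentration that inhibits growth by half.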 Active and inactive are the calls of the source. No stated cut-off is given here; in the data, active = GI50 up to about 1.1 µM and inactive = higher.

In general, GI50 refers to the concentration at which growth is held to half of that of the control. Take `NCCNCC1CCNCC1`: the GI50 with NCI-H522, in the test on SNB-19, with Hs-578T, with T47D, in the test on NCI/ADR-RES and in the test on COLO 205 was > 100 µM (inactive) each time. Moreover, the GI50 in the test on TK-10, in the test with SN12C, in the test with SNB-75, in the test on A549, in the test with NCI-H460 and in the test on HCT-116 was > 100 µM (inactive) in each case. Also, the GI50 with OVCAR-8, in the test on MCF7, in the test on IGROV-1, in the test with EKVX, in the test with PC-3 and in the test on SK-OV-3 was > 100 µM (inactive) throughout. Further, the GI50 in the test with HCT-15 was over 100 µM; in the test with SF-295, > 100 µM (inactive).
Turning to `CN1CCCCC1CCN1c2ccccc2Sc2ccc([S+](C)[O-])cc21` (stereo not given) [MESORIDAZINE], the GI50 in the test with NCI-H522, with SNB-19, in the test with Hs-578T, in the test with T47D, with NCI/ADR-RES and in the test with COLO 205 was > 100 µM (inactive) in each case. The GI50 with TK-10, in the test on SN12C, in the test with SNB-75, in the test on A549, in the test with NCI-H460 and in the test on HCT-116 was > 100 µM (inactive) throughout. Further, the GI50 in the test with OVCAR-8, in the test with MCF7, in the test with IGROV-1, in the test on EKVX, with PC-3 and in the test with SK-OV-3 was > 100 µM (inactive) throughout. Besides, the values for the GI50 with HCT-15 and in the test on SF-295 were over 100 µM and > 100 µM (inactive), respectively.
